In ChEMBL document CHEMBL1147729, “(+)-(2R,5S)-4-[4-cyano-3-(trifluoromethyl)phenyl]-2,5-dimethyl-N-[6-(trifluoromethyl)pyridin-3-yl]piperazine-1-carboxamide (YM580) as an orally potent and peripherally selective nonsteroidal androgen receptor antagonist” (J Med Chem, 2006) one finds inhibition in vivo, IC50 and inhibition data, which are given here for 22 compounds.

Active and inactive are the calls of the source. The calls are words filed in the database; no cut-off is given here.

In general, inhibition in vivo refers to the percentage by which the read-out fell short of the control. The low end stands for a response near the control, the high end for a response far below the control. As usually defined, the IC50 is the concentration that gives 50% inhibition. A higher IC50 goes with weaker potency in that assay.

For assay [1], the system named is Rattus norvegicus. Kind of assay: Effect on ventral prostate weight with reference to control in Wistar rat at 10 mg/kg/day, po. It is filed as functional, Prostate gland. The conditions noted are these: Prostate gland; for inhibition in vivo at 10 mg/kg/day: Rattus norvegicus, Wistar.
Assay [2] addresses T1, Androgen receptor (Homo sapiens, UniProt P10275).
T1 sequence (P10275 whole entry): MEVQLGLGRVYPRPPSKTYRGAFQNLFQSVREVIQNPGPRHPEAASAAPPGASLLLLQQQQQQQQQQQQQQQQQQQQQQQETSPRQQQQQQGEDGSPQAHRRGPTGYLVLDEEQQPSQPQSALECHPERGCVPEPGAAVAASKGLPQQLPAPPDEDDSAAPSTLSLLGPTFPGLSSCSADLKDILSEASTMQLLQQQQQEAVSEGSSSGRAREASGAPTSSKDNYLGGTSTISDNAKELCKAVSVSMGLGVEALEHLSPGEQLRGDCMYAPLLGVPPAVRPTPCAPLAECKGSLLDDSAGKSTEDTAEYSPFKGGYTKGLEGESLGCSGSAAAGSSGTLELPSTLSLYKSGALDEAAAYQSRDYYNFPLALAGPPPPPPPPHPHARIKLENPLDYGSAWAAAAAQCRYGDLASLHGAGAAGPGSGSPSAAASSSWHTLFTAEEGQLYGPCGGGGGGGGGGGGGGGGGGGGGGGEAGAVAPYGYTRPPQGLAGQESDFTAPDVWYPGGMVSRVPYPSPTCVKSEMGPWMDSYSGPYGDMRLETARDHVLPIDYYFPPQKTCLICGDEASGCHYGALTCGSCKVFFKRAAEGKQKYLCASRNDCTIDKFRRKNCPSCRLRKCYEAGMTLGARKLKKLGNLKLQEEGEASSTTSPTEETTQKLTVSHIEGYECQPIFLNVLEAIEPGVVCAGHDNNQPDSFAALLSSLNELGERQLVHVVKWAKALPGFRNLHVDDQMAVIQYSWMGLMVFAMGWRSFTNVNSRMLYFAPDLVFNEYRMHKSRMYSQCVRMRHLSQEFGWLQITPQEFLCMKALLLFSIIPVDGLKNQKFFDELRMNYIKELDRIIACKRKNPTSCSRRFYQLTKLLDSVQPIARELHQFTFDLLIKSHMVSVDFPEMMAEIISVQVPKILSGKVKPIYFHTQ
Description: Inhibition of AR mediated transcriptional activation using reporter assay

Consider `CC(=O)c1ccc(NC(=O)N2C[C@H](C)N(c3ccc(C#N)c(C(F)(F)F)c3)C[C@H]2C)cn1` (racemic), for which the inhibition in vivo at 10 mg/kg/day in assay [1] was 43%. The compound also gave a 50% inhibitory concentration (IC50) in assay [2] of 0.5 µM.
Take `C[C@@H]1CN(c2ccc(C#N)c(C(F)(F)F)c2)[C@@H](C)CN1C(=O)Nc1cncnc1` (racemic): 1 µM corresponded to half-maximal inhibition in assay [2] (IC50).
Consider `COC(=O)c1ccc(NC(=O)N2C[C@H](C)N(c3ccc(C#N)c(C(F)(F)F)c3)C[C@H]2C)cn1` (racemic), for which the inhibition entry in assay [1] is “inactive”. Also, half-maximal inhibition in assay [2] (IC50) was put at 0.47 µM.
As for `COc1ccc(NC(=O)N2C[C@H](C)N(c3ccc(C#N)c(C(F)(F)F)c3)C[C@H]2C)cn1` (racemic), the inhibition in vivo at 10 mg/kg/day in assay [1] turned out to be 52%. The compound further yielded an IC50 in assay [2] of 0.17 µM.
In assay [1], `CSc1ccc(NC(=O)N2C[C@H](C)N(c3ccc(C#N)c(C(F)(F)F)c3)C[C@H]2C)cn1` (racemic) showed an inhibition in vivo at 10 mg/kg/day of 36%. In assay [2], the IC50 stood at 0.22 µM.
In assay [1], `Cc1cncc(NC(=O)N2C[C@H](C)N(c3ccc(C#N)c(C(F)(F)F)c3)C[C@H]2C)c1` (racemic) gave an inhibition in vivo at 10 mg/kg/day of 11%. Further, half-maximal inhibition in assay [2] (IC50) required 0.25 µM.
The corresponding values for `C[C@@H]1CN(c2ccc(C#N)c(C(F)(F)F)c2)[C@@H](C)CN1C(=O)Nc1cccnc1` (racemic) are 42% and 0.12 µM.
The corresponding values for `Cc1ccncc1NC(=O)N1C[C@H](C)N(c2ccc(C#N)c(C(F)(F)F)c2)C[C@H]1C` (racemic) are 11% and 0.33 µM.
Compound `C[C@@H]1CN(c2ccc(C#N)c(C(F)(F)F)c2)[C@@H](C)CN1C(=O)Nc1ccc(O)nc1` (racemic) gave an IC50 in assay [2] greater than 10 µM.
In turn, `Cc1ccc(NC(=O)N2C[C@H](C)N(c3ccc(C#N)c(C(F)(F)F)c3)C[C@H]2C)cn1` (racemic) returned an inhibition in vivo at 10 mg/kg/day in assay [1] of 58%. In assay [2], this compound had an IC50 of 0.13 µM.
Regarding `CC1CN(c2ccc(C#N)c(C(F)(F)F)c2)C(C)CN1C(=O)Nc1ccc(C(F)(F)F)nc1` (racemic), the inhibition in vivo at 10 mg/kg/day in assay [1] came out at 64%.
Compound `C[C@@H]1CN(c2ccc(C#N)c(C(F)(F)F)c2)[C@@H](C)CN1C(=O)Nc1ccc(Cl)nc1` (racemic) returned an inhibition in vivo at 10 mg/kg/day in assay [1] of 52%. In assay [2], this compound displayed a half-maximal inhibitory concentration (IC50) of 0.73 µM.
The compound `C[C@@H]1CN(c2ccc(C#N)c(C(F)(F)F)c2)[C@@H](C)CN1C(=O)Nc1ccccn1` (racemic) yielded a 50% inhibitory concentration (IC50) in assay [2] of 7.8 µM.
Turning to `C[C@@H]1CN(c2ccc(C#N)c(C(F)(F)F)c2)[C@@H](C)CN1C(=O)Nc1ccc(N)nc1` (racemic), in assay [1], the inhibition in vivo at 10 mg/kg/day was found to be 39%. Half-maximal inhibition in assay [2] (IC50) required 0.37 µM.
The compound `C[C@@H]1CN(c2ccc(C#N)c(C(F)(F)F)c2)[C@@H](C)CN1C(=O)Nc1ccncc1` (racemic) displayed an inhibition in vivo at 10 mg/kg/day in assay [1] of 39%.
For the compound `Cc1ncccc1NC(=O)N1C[C@H](C)N(c2ccc(C#N)c(C(F)(F)F)c2)C[C@H]1C` (racemic), in assay [2], the IC50 turned out to be 0.68 µM. This counts as sub-micromolar.
Consider `COc1cncc(NC(=O)N2C[C@H](C)N(c3ccc(C#N)c(C(F)(F)F)c3)C[C@H]2C)c1` (racemic), for which the inhibition in vivo at 10 mg/kg/day in assay [1] came to 18%. In assay [2], this compound registered a 50% inhibitory concentration (IC50) of 0.44 µM.
In assay [2], `C[C@@H]1CN(c2ccc(C#N)c(C(F)(F)F)c2)[C@@H](C)CN1C(=O)Nc1ccc[n+]([O-])c1` (racemic) returned a half-inhibitory concentration (IC50) greater than 10 µM.
In assay [1], `C[C@@H]1CN(c2ccc(C#N)c(C(F)(F)F)c2)[C@@H](C)CN1C(=O)Nc1ccc(C#N)nc1` (racemic) gave an inhibition in vivo at 10 mg/kg/day of 53%. Besides, in assay [2], the half-maximal inhibitory concentration (IC50) is 0.2 µM.
For the compound `C[C@@H]1CN(c2ccc(C#N)c(C(F)(F)F)c2)[C@@H](C)CN1C(=O)Nc1ncccn1` (racemic), the concentration for half-maximal inhibition (IC50) in assay [2] is greater than 10 µM.
As for `COc1ccncc1NC(=O)N1C[C@H](C)N(c2ccc(C#N)c(C(F)(F)F)c2)C[C@H]1C` (racemic), the inhibition result in assay [1] was “inactive”.
In the case of `C[C@@H]1CN(c2ccc(C#N)c(C(F)(F)F)c2)[C@@H](C)CN1C(=O)Nc1ccncn1` (racemic), the IC50 in assay [2] was found to be 4.6 µM.
